Some test systems named below: RPMI-8226; NCI-H522; NCI-H460; NCI-H226; IGROV-1; COLO 205; TK-10; SK-MEL-5; SN12C; NCI-H23; HCC 2998; OVCAR-3; HCT-116; SF-295; SW-620; EKVX; LXFL 529; ACHN.
Common to all, as to assay: DTP human tumour cell line panel, 48 h

SMILES strings stand for the structures.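 Dose response: 5 concentrations. Exposure: 48 h. Format: 96-well plates. Endpoint: linear interpolation; highest concentration if not reached. GI50: concentration for 50% inhibition of growth.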 The source made the active and inactive calls. No stated cut-off is given here; in the data, active = GI50 up to about 1.1 µM and inactive = higher. A value given as a limit tells only on which side of the number the result lay.

Usually GI50 stands for the concentration at which growth is held to half of that of the control.

For the compound `CC(C)c1cccc(C(C)C)c1NC1=CC(=O)C(=O)c2ccccc21`, the GI50 in the test with RPMI-8226 is > 100 µM (inactive); in the test on NCI-H522, 58.6 µM (inactive); in the test on NCI-H460, > 100 µM (inactive); in the test with NCI-H226 it was > 100 µM (inactive); in the test on IGROV-1 it was > 100 µM (inactive); with COLO 205 it was > 100 µM (inactive). The GI50 in the test on TK-10 is > 100 µM (inactive); in the test on SK-MEL-5, > 100 µM (inactive); in the test with SN12C, > 100 µM (inactive); in the test on NCI-H23 it was 72.9 µM (inactive); in the test with HCC 2998, > 100 µM (inactive); in the test on OVCAR-3, > 100 µM (inactive). Further, the GI50 with HCT-116, in the test with SF-295, with SW-620, with EKVX and in the test with LXFL 529 was > 100 µM (inactive) throughout.

In the case of `CN1C(=O)CSC1=S` [3-METHYL-RHODANINE], the GI50 with RPMI-8226, in the test on NCI-H522, in the test on NCI-H460, in the test with ACHN, with NCI-H226 and in the test on IGROV-1 was > 100 µM (inactive) in each case. For the same compound, the GI50 in the test on COLO 205, in the test with TK-10, in the test with SK-MEL-5, in the test with SN12C, with NCI-H23 and in the test with OVCAR-3 was > 100 µM (inactive) in each case. Besides, the GI50 in the test on HCT-116, with SF-295, in the test on SW-620 and in the test with LXFL 529 was > 100 µM (inactive) in each case.

In the case of `NC(=O)c1ccccc1NC(=O)C(=O)Cc1nc2ccccc2nc1O`, the GI50 with RPMI-8226, in the test on NCI-H522, with NCI-H460, with ACHN, in the test on IGROV-1 and in the test on COLO 205 was > 100 µM (inactive) each time. For the same compound, the GI50 in the test on TK-10, in the test on SK-MEL-5, in the test with NCI-H23, in the test with HCC 2998, with OVCAR-3 and in the test with HCT-116 was > 100 µM (inactive) each time. Moreover, the GI50 with SF-295, in the test on SW-620, with EKVX and with LXFL 529 was > 100 µM (inactive) throughout.

Turning to `COc1cc([C@@H]2OCC3C(c4ccc5c(c4)OCO5)OCC32)cc(OC)c1OC` (some centres not stated), the GI50 in the test on RPMI-8226 was 98.9 µM (inactive); in the test on NCI-H522, 49.9 µM (inactive); in the test on NCI-H460 it was > 100 µM (inactive); in the test on ACHN it was > 100 µM (inactive); with NCI-H226, 41.3 µM (inactive); in the test on IGROV-1, > 100 µM (inactive). Moreover, the GI50 was > 100 µM (inactive) with COLO 205; > 100 µM (inactive) in the test on SN12C; 43.4 µM (inactive) in the test with NCI-H23; > 100 µM (inactive) with HCC 2998; > 100 µM (inactive) with OVCAR-3; 66.7 µM (inactive) with HCT-116. For the same compound, the GI50 is > 100 µM (inactive) in the test on SF-295, > 100 µM (inactive) with SW-620, 47.1 µM (inactive) with EKVX and 43.1 µM (inactive) in the test with LXFL 529.

For `O=C1c2ccc3c4ccccc4n(Cc4ccccc4)c3c2C(=O)N1c1ccccc1`, the GI50 is 9.02 µM (inactive) in the test on RPMI-8226; 2.62 µM (inactive) in the test on NCI-H522; 58.7 µM (inactive) with NCI-H460; > 35.7 µM (inactive) in the test on ACHN; 12.8 µM (inactive) with NCI-H226; 17.8 µM (inactive) in the test with IGROV-1. The GI50 with COLO 205 was 3.52 µM (inactive); with TK-10, 15.6 µM (inactive); in the test on SK-MEL-5, 16.1 µM (inactive); in the test with SN12C, 16.5 µM (inactive); with NCI-H23, 12.9 µM (inactive); in the test on HCC 2998, 18.3 µM (inactive). Besides, the GI50 is 5.5 µM (inactive) with OVCAR-3; 16.4 µM (inactive) in the test on HCT-116; 14.7 µM (inactive) in the test on SF-295; 5.98 µM (inactive) in the test with SW-620; 17.5 µM (inactive) in the test with EKVX; 14.3 µM (inactive) in the test on LXFL 529.

With `Cn1cc2ccccc2c1-c1nc(F)nc(Oc2ccc3c(c2)CC[C@@H]2C3CC[C@@]3(C)C2C[C@H](O)[C@@H]3O)n1` (some centres not stated), the GI50 in the test with RPMI-8226 is 16.7 µM (inactive); in the test on NCI-H522, 11.8 µM (inactive); in the test on NCI-H460, 30.9 µM (inactive); in the test with ACHN, 20.2 µM (inactive); in the test with IGROV-1, 20.7 µM (inactive); in the test on COLO 205, 17.7 µM (inactive). Also, the GI50 in the test with TK-10 is 20.4 µM (inactive); in the test on SK-MEL-5, 17.7 µM (inactive); in the test on SN12C it was 13.7 µM (inactive); in the test with NCI-H23 it was 18.3 µM (inactive); in the test with HCC 2998 it was 15.4 µM (inactive); with OVCAR-3 it was 20.7 µM (inactive). The GI50 was 14.3 µM (inactive) in the test on HCT-116; 17.6 µM (inactive) with SF-295; 4.14 µM (inactive) with SW-620; 17.7 µM (inactive) with EKVX; 13.8 µM (inactive) in the test with LXFL 529.

Regarding `C[C@]12CCc3nonc3C1CC[C@@H]1C2CC[C@@]2(C)C1CC[C@@H]2O` (some centres not stated), the GI50 with RPMI-8226, in the test on NCI-H522, in the test on NCI-H460, with ACHN, in the test on NCI-H226 and in the test on IGROV-1 was > 100 µM (inactive) throughout. The GI50 in the test with COLO 205, with TK-10, in the test on SK-MEL-5, with SN12C, with NCI-H23 and in the test with HCC 2998 was > 100 µM (inactive) in each case. For the same compound, the GI50 in the test with OVCAR-3, in the test on SF-295, with SW-620, in the test on EKVX and in the test on LXFL 529 was > 100 µM (inactive) throughout.

With `COC(=O)C(=O)C(C(=O)C(=O)Nc1cccc(C(C)=O)c1)c1nc2ccc([N+](=O)[O-])cc2nc1O` (configuration not stated), the GI50 with RPMI-8226, with NCI-H522, in the test with NCI-H460, in the test on ACHN, with NCI-H226 and in the test on IGROV-1 was > 100 µM (inactive) each time. Besides, the GI50 with COLO 205, with TK-10, with SK-MEL-5, in the test on SN12C, in the test with NCI-H23 and with HCC 2998 was > 100 µM (inactive) each time. Further, the GI50 with HCT-116, with SF-295, with SW-620, in the test on EKVX and with LXFL 529 was > 100 µM (inactive) each time.

On to `COc1ccccc1OCc1nnc(SCC(=O)O)n1-c1ccccc1`, for which the GI50 in the test with RPMI-8226, with NCI-H522, in the test with NCI-H460, in the test with ACHN, with NCI-H226 and in the test with IGROV-1 was > 100 µM (inactive) in each case. Besides, the GI50 in the test with COLO 205, in the test on TK-10, with SK-MEL-5, in the test on SN12C, with NCI-H23 and in the test on HCC 2998 was > 100 µM (inactive) each time. Besides, the GI50 in the test with OVCAR-3, in the test with HCT-116, in the test on SF-295, with EKVX and with LXFL 529 was > 100 µM (inactive) in each case.

Consider `CCCCCN(CCCCC)C(=O)[C@H](CCC(=O)OCc1ccccc1)NC(=O)c1cc2ccccc2[nH]1`, for which the GI50 in the test with RPMI-8226 was 0.343 µM (active); in the test with NCI-H522, > 100 µM (inactive); in the test on NCI-H460, > 100 µM (inactive); in the test with ACHN, > 100 µM (inactive); in the test on NCI-H226, > 100 µM (inactive); in the test with IGROV-1 it was > 100 µM (inactive). In addition, the GI50 in the test with COLO 205, in the test on SN12C, with NCI-H23, in the test on HCC 2998, with OVCAR-3 and with HCT-116 was > 100 µM (inactive) throughout. Moreover, the GI50 in the test with SF-295, in the test with SW-620, in the test with EKVX and in the test on LXFL 529 was > 100 µM (inactive) each time.

`COC(=O)/C=C(C)/C=C/c1cc(C(C)=O)c(C)o1`: the GI50 was 54.7 µM (inactive) in the test with RPMI-8226; > 100 µM (inactive) in the test on NCI-H522; > 100 µM (inactive) with NCI-H460; > 100 µM (inactive) in the test on ACHN; > 100 µM (inactive) with IGROV-1; > 100 µM (inactive) in the test with NCI-H23. In addition, the GI50 is > 100 µM (inactive) in the test on HCC 2998; > 100 µM (inactive) with OVCAR-3; > 100 µM (inactive) in the test with HCT-116; > 100 µM (inactive) with SF-295; > 100 µM (inactive) in the test with SW-620; 51.9 µM (inactive) in the test on EKVX. The GI50 in the test with LXFL 529 was 93.1 µM (inactive).

For the compound `CN(/N=C/c1ccnc2ccccc12)c1c([N+](=O)[O-])cc([N+](=O)[O-])cc1[N+](=O)[O-]`, the GI50 in the test on RPMI-8226 was 26.6 µM (inactive); in the test with NCI-H522, 27.6 µM (inactive); with NCI-H460 it was > 100 µM (inactive); with ACHN it was 72.6 µM (inactive); with NCI-H226 it was 71.4 µM (inactive); with IGROV-1, > 100 µM (inactive). Also, the GI50 with COLO 205 was > 100 µM (inactive); with TK-10, > 100 µM (inactive); in the test on SK-MEL-5, 34.2 µM (inactive); in the test with SN12C it was > 100 µM (inactive); in the test on NCI-H23, 35.1 µM (inactive); in the test with HCC 2998, > 100 µM (inactive). In addition, the GI50 in the test with OVCAR-3 was 41.6 µM (inactive); with SF-295, 76.9 µM (inactive); with SW-620, 38.5 µM (inactive); in the test with EKVX it was 47.3 µM (inactive); with LXFL 529 it was 48.4 µM (inactive).

These data come from ChEMBL document CHEMBL1201862, “PubChem BioAssay data set” (2004).
